Activity calls are given as the source filed them. The rule behind the calls is not given here.
Key:
[1] = Selectivity index, ratio of IC50 for human platelet to IC50 for human MOLT-4 cells
[2] = Toxicity in human platelet assessed as reduction in cell viability measured after 48 hrs by MTS assay; format: tissue-based; details: human platelets
[3] = Ratio of IC50 for human MOLT-4 cells in presence of pomalidomide to IC50 for human MOLT-4 cells; format: functional
MOLT-4 [4] = experiment: Induction of apoptosis in human MOLT-4 cells assessed as late apoptotic cells at 100 nM measured after 48 hrs in presence of pan-caspase inhibitor QVD by Alexa Fluor 647-Annexin V/propidium iodide staining based flow cytometry (reference value: 1.1 to 1.4%); format: functional
MOLT-4 [5] = experiment: Induction of apoptosis in human MOLT-4 cells assessed as viable cells at 100 nM measured after 48 hrs in presence of pan-caspase inhibitor QVD by Alexa Fluor 647-Annexin V/propidium iodide staining based flow cytometry (reference value: 97.1 to 97.3%); format: functional; details: read-out: Activity
MOLT-4 [6] = experiment: Induction of apoptosis in human MOLT-4 cells assessed as early apoptotic cells at 100 nM measured after 48 hrs in presence of pan-caspase inhibitor QVD by Alexa Fluor 647-Annexin V/propidium iodide staining based flow cytometry (reference value: 1.5 to 1.7%); format: functional
[7] = molecular target: T1, Cereblon/Ikaros (Homo sapiens) (UniProt Q96SW2+Q13422); experiment: Protac activity at CRBN/IKZF1 in human MOLT-4 cells assessed as induction of IKZF1 degradation at 100 nM measured after 16 hrs by immunoblotting analysis; format: cell-based
MOLT-4 [8] = experiment: Induction of apoptosis in human MOLT-4 cells assessed as late apoptotic cells at 100 nM measured after 48 hrs by Alexa Fluor 647-Annexin V/propidium iodide staining based flow cytometry (reference value: 1.1 to 1.4%); format: functional
MOLT-4 [9] = experiment: Induction of apoptosis in human MOLT-4 cells assessed as early apoptotic cells at 100 nM measured after 48 hrs by Alexa Fluor 647-Annexin V/propidium iodide staining based flow cytometry (reference value: 1.5 to 1.7%); format: functional
[10] = molecular target: T2, Protein cereblon/Bcl-2-like protein 1 (Homo sapiens, UniProt Q07817+Q96SW2); experiment: Protac activity at CRBN/BCL-XL in human MOLT-4 cells assessed as induction of BCL-XL degradation measured after 16 hrs by immunoblotting analysis; format: cell-based
MOLT-4 [11] = experiment: Antiproliferative activity against human MOLT-4 cells assessed as reduction in cell viability measured after 48 hrs by MTS assay; format: functional, cell-based; details: MOLT-4, 48 h
MOLT-4 [12] = experiment: Induction of apoptosis in human MOLT-4 cells assessed as early apoptotic cells at 10 nM measured after 48 hrs by Alexa Fluor 647-Annexin V/propidium iodide staining based flow cytometry (reference value: 1.5 to 1.7%); format: functional
MOLT-4 [13] = experiment: Induction of apoptosis in human MOLT-4 cells assessed as viable cells at 100 nM measured after 48 hrs by Alexa Fluor 647-Annexin V/propidium iodide staining based flow cytometry (reference value: 97.1 to 97.3%); format: functional; details: read-out: Activity
[14] = molecular target: T2, Protein cereblon/Bcl-2-like protein 1; experiment: Protac activity at CRBN/BCL-XL in human MOLT-4 cells assessed as induction of BCL-XL degradation at 10 to 100 nM measured after 16 hrs in presence of competitive CRBN ligand pomalidomide by immunoblotting analysis; format: cell-based; details: dose 10-100 nM
MOLT-4 [15] = experiment: Induction of apoptosis in human MOLT-4 cells assessed as necrotic cells at 100 nM measured after 48 hrs in presence of pan-caspase inhibitor QVD by Alexa Fluor 647-Annexin V/propidium iodide staining based flow cytometry (reference value: 0.3 to 0.4%); format: functional
MOLT-4 [16] = experiment: Potency index, ratio of ABT-263 IC50 to test compound IC50 for antiproliferative activity against human MOLT-4 cells assessed as reduction in cell viability measured after 48 hrs by MTS assay; format: functional
RS4-11 = experiment: Antiproliferative activity against human RS4-11 cells assessed as reduction in cell viability measured after 48 hrs by MTS assay; format: functional, cell-based; details: RS4-11, 48 h
[17] = molecular target: T2, Protein cereblon/Bcl-2-like protein 1; experiment: Protac activity at CRBN/BCL-XL in human MOLT-4 cells assessed as induction of BCL-XL degradation at 100 nM measured within 2 hrs by immunoblotting analysis; format: cell-based
[18] = molecular target: T3, Protein cereblon/Zinc finger protein Aiolos (Homo sapiens) (UniProt Q96SW2+Q9UKT9); experiment: Protac activity at CRBN/IKZF3 in human MOLT-4 cells assessed as induction of IKZF3 degradation at 100 nM measured after 16 hrs by immunoblotting analysis; format: cell-based
MOLT-4 [19] = experiment: Induction of apoptosis in human MOLT-4 cells assessed as viable cells at 10 nM measured after 48 hrs by Alexa Fluor 647-Annexin V/propidium iodide staining based flow cytometry (reference value: 97.1 to 97.3%); format: functional; details: read-out: Activity
MOLT-4 [20] = experiment: Induction of apoptosis in human MOLT-4 cells assessed as late apoptotic cells at 10 nM measured after 48 hrs by Alexa Fluor 647-Annexin V/propidium iodide staining based flow cytometry (reference value: 1.1 to 1.4%); format: functional
[21] = molecular target: Protein cereblon/Apoptosis regulator Bcl-2 (Homo sapiens) (UniProt P10415+Q96SW2); experiment: Protac activity at CRBN/BCL2 in human MOLT-4 cells assessed as induction of BCL2 degradation at 50 nM measured after 16 hrs by immunoblotting analysis; format: cell-based
[22] = molecular target: T2, Protein cereblon/Bcl-2-like protein 1; experiment: Protac activity at CRBN/BCL-XL in human MOLT-4 cells assessed as induction of BCL-XL degradation at 3.7 to 300 nM measured after 16 hrs in presence of proteasome inhibitor MG-132 by immunoblotting analysis; format: cell-based; details: dose 3.7-300 nM
MOLT-4 [23] = experiment: Induction of apoptosis in human MOLT-4 cells assessed as increase in cleaved PARP expression measured after 16 hrs by immunoblotting analysis; format: functional, cell-based
[24] = molecular target: T2, Protein cereblon/Bcl-2-like protein 1; experiment: Protac activity at CRBN/BCL-XL in human MOLT-4 cells assessed as induction of BCL-XL degradation by measuring remaining BCL-XL level at 50 nM measured after 16 hrs by immunoblotting analysis relative to control; format: cell-based
[25] = molecular target: T2, Protein cereblon/Bcl-2-like protein 1; experiment: Protac activity at CRBN/BCL-XL in human platelet assessed as induction of BCL-XL degradation up to 1 uM measured after 16 hrs by immunoblotting analysis; details: dose microM <=1, time 16.0 hrs
NCI-H146 = experiment: Antiproliferative activity against human NCI-H146 cells assessed as reduction in cell viability measured after 48 hrs by MTS assay; format: functional, cell-based; details: NCI-H146, 48 h
[26] = molecular target: T3, Protein cereblon/Zinc finger protein Aiolos (Homo sapiens); experiment: Protac activity at CRBN/IKZF3 in human MOLT-4 cells assessed as induction of IKZF3 degradation at 10 nM measured after 16 hrs by immunoblotting analysis; format: cell-based
MOLT-4 [27] = experiment: Induction of apoptosis in human MOLT-4 cells assessed as necrotic cells at 10 nM measured after 48 hrs by Alexa Fluor 647-Annexin V/propidium iodide staining based flow cytometry (reference value: 0.3 to 0.4%); format: functional
MOLT-4 [28] = experiment: Induction of apoptosis in human MOLT-4 cells assessed as increase in cleaved caspase-3 expression measured after 16 hrs by immunoblotting analysis; format: functional, cell-based
[29] = molecular target: T1, Cereblon/Ikaros (Homo sapiens); experiment: Protac activity at CRBN/IKZF1 in human MOLT-4 cells assessed as induction of IKZF1 degradation at 10 nM measured after 16 hrs by immunoblotting analysis; format: cell-based
[30] = molecular target: T2, Protein cereblon/Bcl-2-like protein 1; experiment: Protac activity at CRBN/BCL-XL in human MOLT-4 cells assessed as induction of BCL-XL degradation at 100 nM measured after 8 hrs by immunoblotting analysis relative to control; format: cell-based
MOLT-4 [31] = experiment: Induction of apoptosis in human MOLT-4 cells assessed as necrotic cells at 100 nM measured after 48 hrs by Alexa Fluor 647-Annexin V/propidium iodide staining based flow cytometry (reference value: 0.3 to 0.4%); format: functional
[32] = molecular target: T2, Protein cereblon/Bcl-2-like protein 1; experiment: Protac activity at CRBN/BCL-XL in human MOLT-4 cells assessed as induction of BCL-XL degradation at 100 nM preincubated for 16 hrs followed by compound washout by immunoblotting analysis; format: cell-based

With CN(CCOCCOCCOCCNc1cccc2c1C(=O)N([C@@H]1CCC(=O)NC1=O)C2=O)CC[C@H](CSc1ccccc1)Nc1ccc(S(=O)(=O)NC(=O)c2ccc(N3CCN(CC4=C(c5ccc(Cl)cc5)CCC(C)(C)C4)CC3)cc2)cc1S(=O)(=O)C(F)(F)F the “Ratio IC50” value [1] was 120, the IC50 at 48 h [2] was 1220 nM and the “Ratio IC50” value [3] was 27. For the same molecule, the Activity (MOLT-4 [4]) was 56.7%, the viability at 0.1 µM (MOLT-4 [5]) was 23.1% and the Activity (MOLT-4 [6]) was 18.7%. For the same molecule, the Activity [7] was “Active”, the Activity (MOLT-4 [8]) was 52.7% and the Activity (MOLT-4 [9]) was 45.5%. The Activity [10] was “Dose-dependent effect”, the DC50 [10] was 2.5 nM and the IC50 (MOLT-4 [11]) was 10.1 nM. The Activity (MOLT-4 [12]) was 58.1%, the viability at 0.1 µM (MOLT-4 [13]) was 1.4% and the Activity [14] was “inactive”. For the same molecule, the Activity (MOLT-4 [15]) was 1.3%, the “Ratio IC50” value (MOLT-4 [16]) was 22 and the IC50 (RS4-11) was 41.8 nM. The Activity [17] was “Active”, the Activity [18] was “Active” and the viability at 0.01 µM (MOLT-4 [19]) was 21.9%. The Activity (MOLT-4 [20]) was 18.7%, the Activity [21] was “inactive” and the Activity [22] was “inactive”. For the same molecule, the Activity (MOLT-4 [23]) was “Dose-dependent effect”, the Activity [24] was 4% and the Activity [25] was “inactive”. The IC50 (NCI-H146) was 25.3 nM, the Activity [26] was “inactive” and the Activity (MOLT-4 [27]) was 1%. The Activity (MOLT-4 [28]) was “Dose-dependent effect”, the Activity [29] was “inactive” and the Activity [30] was over 96%. For the same molecule, the Activity (MOLT-4 [31]) was 0.2% and the Activity [32] was “inactive”.
